Measured values from PMC3867298 (Clinical cancer research : an official journal of the …, 2010).

Assays:
[1] = system: advanced solid tumors; experiment: Antitumor activity by modified RECIST and CA125; type: in vivo, human
[2] = system: plasma soluble VEGFR2 (sVEGFR2); experiment: Plasma soluble VEGFR2 ELISA; type: in vivo, human; details: cycle 1, day 28 (95% CI 5,086, 6,113); baseline cycle 1 day 1 8,419 pg/mL; P < 0.001
[3] = Plasma pharmacokinetics in patients; type: in vivo, human; details: for AUC(0-inf) / Cmax / Tmax / half-life / Vd/F: human, plasma, oral; for Vd/F: 160 mg/m2, Vd/F
[4] = system: phosphohistone H3 (pHH3); experiment: Histone H3 phosphorylation in keratinocytes; type: in vivo, human; details: 9 paired skin biopsies at MTD, cycle 1 day 28
[5] = system: patients with advanced solid tumors
[6] = day 1, 160 mg/m^2, n=8, mean ± SD
[7] = day 28, 160 mg/m^2, n=5, mean ± SD

Cc1cc(Nc2cc(N3CCN(C)CC3)nc(/C=C/c3ccccc3)n2)n[nH]1 [ENMD-2076]
Colorectal cancer patients with SD ≥ 12 weeks ([1]; 19 colorectal cancer patients, 5 patients): 26% | Ovarian cancer patients with PR or SD ≥ 12 weeks ([1]; 20 ovarian cancer patients, all dose levels, twelve patients): 60% | Partial responses (PR) as best response ([1]; 58 evaluable patients, 2 patients, 1 confirmed, both ovarian cancer): 3% | Progressive disease (PD) as best response ([1]; 58 evaluable patients, 7 patients): 12% | Patients with decreases in tumor measurements from baseline not qualifying as PR ([1]; twenty patients): 30% | Mean plasma sVEGFR2 [2]: 5,600 pg/mL | CL/F ([3]; day 1, 60 mg/m^2, n=6, mean ± SD): 37.9 ± 19.3 L/h | CL/F ([3]; day 1, 80 mg/m^2, n=4, mean ± SD): 45.9 ± 13.0 L/h | CL/F ([3]; day 1, 120 mg/m^2, n=3, mean ± SD): 64.3 ± 16.9 L/h | CL/F [3, 6]: 52.9 ± 18.4 L/h | CL/F ([3]; day 1, 200 mg/m^2, n=5, mean ± SD): 41.5 ± 13.3 L/h | CL/F ([3]; day 1, 350 mg/m^2, n=2, mean ± SD): 55.2 ± 12.9 L/h | CL/F ([3]; day 28, 60 mg/m^2, n=6, mean ± SD): 10.4 ± 7.9 L/h | CL/F ([3]; day 28, 80 mg/m^2, n=3, mean ± SD): 10.8 ± 3.3 L/h | CL/F ([3]; day 28, 120 mg/m^2, n=3, mean ± SD): 13.0 ± 1.4 L/h | CL/F [3, 7]: 9.1 ± 2.9 L/h | CL/F ([3]; day 28, 200 mg/m^2, n=4, mean ± SD): 14.0 ± 4.7 L/h | AUC(0-inf) ([3]; 60 mg/m2, AUC(0-inf), day 1, 60 mg/m^2, n=6, mean ± SD): 3160 ± 1340 ng·h/mL | AUC(0-inf) ([3]; 60 mg/m2, AUC(0-inf), day 28, 60 mg/m^2, n=6, mean ± SD): 15300 ± 8910 ng·h/mL | Cmax ([3]; 60 mg/m2, Cmax, day 1, 60 mg/m^2, n=6, mean ± SD): 64 ± 23 ng/mL | Cmax ([3]; 60 mg/m2, Cmax, day 28, 60 mg/m^2, n=6, mean ± SD): 218 ± 95 ng/mL | Tmax ([3]; 60 mg/m2, Tmax, day 1, 60 mg/m^2, n=6, mean ± SD): 7.8 ± 7.8 h | Tmax ([3]; 60 mg/m2, Tmax, day 28, 60 mg/m^2, n=6, mean ± SD): 4.7 ± 3 h | half-life ([3]; 60 mg/m2, t1/2, day 1, 60 mg/m^2, n=6, mean ± SD): 36.4 ± 19.3 h | half-life ([3]; 60 mg/m2, t1/2, day 28, 60 mg/m^2, n=6, mean ± SD): 53.1 ± 20.4 h | AUC(0-inf) ([3]; 80 mg/m2, AUC(0-inf), day 1, 80 mg/m^2, n=4, mean ± SD): 3850 ± 1600 ng·h/mL | AUC(0-inf) ([3]; 80 mg/m2, AUC(0-inf), day 28, 80 mg/m^2, n=3, mean ± SD): 14700 ± 3780 ng·h/mL | Cmax ([3]; 80 mg/m2, Cmax, day 1, 80 mg/m^2, n=4, mean ± SD): 101 ± 59 ng/mL | Cmax ([3]; 80 mg/m2, Cmax, day 28, 80 mg/m^2, n=3, mean ± SD): 233 ± 76 ng/mL | Tmax ([3]; 80 mg/m2, Tmax, day 1, 80 mg/m^2, n=4, mean ± SD): 4 ± 1.6 h | Tmax ([3]; 80 mg/m2, Tmax, day 28, 80 mg/m^2, n=3, mean ± SD): 3.4 ± 1.2 h | half-life ([3]; 80 mg/m2, t1/2, day 1, 80 mg/m^2, n=4, mean ± SD): 31.8 ± 7.6 h | half-life ([3]; 80 mg/m2, t1/2, day 28, 80 mg/m^2, n=3, mean ± SD): 51 ± 18.7 h | AUC(0-inf) ([3]; 120 mg/m2, AUC(0-inf), day 1, 120 mg/m^2, n=3, mean ± SD): 3590 ± 1260 ng·h/mL | AUC(0-inf) ([3]; 120 mg/m2, AUC(0-inf), day 28, 120 mg/m^2, n=3, mean ± SD): 16700 ± 1120 ng·h/mL | Cmax ([3]; 120 mg/m2, Cmax, day 1, 120 mg/m^2, n=3, mean ± SD): 93 ± 14 ng/mL | Cmax ([3]; 120 mg/m2, Cmax, day 28, 120 mg/m^2, n=3, mean ± SD): 314 ± 73 ng/mL | Tmax ([3]; 120 mg/m2, Tmax, day 1, 120 mg/m^2, n=3, mean ± SD): 6 ± 3.5 h | Tmax ([3]; 120 mg/m2, Tmax, day 28, 120 mg/m^2, n=3, mean ± SD): 2.7 ± 3.2 h | half-life ([3]; 120 mg/m2, t1/2, day 1, 120 mg/m^2, n=3, mean ± SD): 27.3 ± 5.8 h | half-life ([3]; 120 mg/m2, t1/2, day 28, 120 mg/m^2, n=3, mean ± SD): 44.9 ± 8.6 h | AUC(0-inf) ([3]; 160 mg/m2, AUC(0-inf), day 1, 160 mg/m^2, n=8, mean ± SD): 5940 ± 2410 ng·h/mL | AUC(0-inf) ([3]; 160 mg/m2, AUC(0-inf), day 28, 160 mg/m^2, n=5, mean ± SD): 34600 ± 16500 ng·h/mL | Cmax ([3]; 160 mg/m2, Cmax, day 1, 160 mg/m^2, n=8, mean ± SD): 157 ± 52 ng/mL | Cmax ([3]; 160 mg/m2, Cmax, day 28, 160 mg/m^2, n=5, mean ± SD): 558 ± 222 ng/mL | Tmax ([3]; 160 mg/m2, Tmax, day 1, 160 mg/m^2, n=8, mean ± SD): 3.5 ± 1.4 h | Tmax ([3]; 160 mg/m2, Tmax, day 28, 160 mg/m^2, n=5, mean ± SD): 4.4 ± 2.1 h | Vd/F [3, 6]: 2020 ± 388 L | Vd/F [3, 7]: 600 ± 229 L | half-life ([3]; 160 mg/m2, t1/2, day 1, 160 mg/m^2, n=8, mean ± SD): 28.6 ± 8.4 h | half-life ([3]; 160 mg/m2, t1/2, day 28, 160 mg/m^2, n=5, mean ± SD): 46.1 ± 9.5 h | AUC(0-inf) ([3]; 200 mg/m2, AUC(0-inf), day 1, 200 mg/m^2, n=5, mean ± SD): 10600 ± 4900 ng·h/mL | AUC(0-inf) ([3]; 200 mg/m2, AUC(0-inf), day 28, 200 mg/m^2, n=4, mean ± SD): 34500 ± 18300 ng·h/mL | Cmax ([3]; 200 mg/m2, Cmax, day 1, 200 mg/m^2, n=5, mean ± SD): 229 ± 65 ng/mL | Cmax ([3]; 200 mg/m2, Cmax, day 28, 200 mg/m^2, n=4, mean ± SD): 557 ± 191 ng/mL | Tmax ([3]; 200 mg/m2, Tmax, day 1, 200 mg/m^2, n=5, mean ± SD): 4 ± 2.4 h | Tmax ([3]; 200 mg/m2, Tmax, day 28, 200 mg/m^2, n=4, mean ± SD): 4.5 ± 2.5 h | half-life ([3]; 200 mg/m2, t1/2, day 1, 200 mg/m^2, n=5, mean ± SD): 38.3 ± 10 h | half-life ([3]; 200 mg/m2, t1/2, day 28, 200 mg/m^2, n=4, mean ± SD): 47.6 ± 12.7 h | AUC(0-inf) ([3]; 350 mg/m2, AUC(0-inf), day 1, 350 mg/m^2, n=2, mean ± SD): 12200 ± 5100 ng·h/mL | Cmax ([3]; 350 mg/m2, Cmax, day 1, 350 mg/m^2, n=2, mean ± SD): 300 ± 18 ng/mL | Tmax ([3]; 350 mg/m2, Tmax, day 1, 350 mg/m^2, n=2, mean ± SD): 3 ± 1.4 h | half-life ([3]; 350 mg/m2, t1/2, day 1, 350 mg/m^2, n=2, mean ± SD): 31.1 ± 14.4 h | half-life ([3]; Mean terminal phase elimination half-life (t1/2), range, after a single dose): 27.3 to 38.3 h | Tmax ([3]; Tmax, range over all dose levels, day 28): 2.7 to 4.7 h | Paired biopsies in which pHH3-positive cells decreased posttreatment [4]: 3 samples | Paired biopsies in which pHH3-positive cells increased [4]: 2 samples | Paired biopsies in which pHH3-positive cells remained the same [4]: 4 samples | Patients with grade 3 neutropenia requiring dose delay and reduction ([5]; 200 mg/m^2, 3 of 7): 43% | Patients with neutropenia ([5]; 200 mg/m^2 during dose escalation, 4 of 7): 57% | Rate of grade ≥ 3 neutropenia ([5]; 46 patients treated at 160 mg/m^2 (2/46)): 4% | Rate of grade ≥ 3 fatigue ([5]; 46 patients treated at 160 mg/m^2 (3/46)): 7% | Rate of grade ≥ 3 hypertension ([5]; 46 patients treated at 160 mg/m^2 (11/46)): 24% | Patients with adverse events meeting DLT criteria ([5]; MTD expansion, 12/38, 16 events): 32% | Patients requiring dose reduction ([5]; MTD expansion, 14/38): 37% | Patients with dose delays ([5]; MTD expansion, 24/38): 63%
